Read-outs that look alike come from different tables or passages of the source.
Test system: hiPSC-CMs (iCell-Cardiomyocytes^2)
Procedure: Cells were seeded according to the instructions of the cell provider, in fibronectin-coated 48-well MEA plates (Axion Cytoview Plates, M768-tMEA-48B) at a density suited to form a monolayer (i.e., 50 K/well) and maintained in culture in a stage incubator (37°C, 5% CO2).
At least 4 h before the beginning of the baseline measurements, a full medium exchange was performed (to a final volume of 400 µL per well). Neat compounds were dissolved in 100% DMSO at a stock concentration 1000-fold the highest target concentration. […] Afterwards, these stock solutions were diluted with Maintenance medium (CDi), to 10-fold the intended concentration. The final DMSO concentration in test solutions and vehicle control was 0.1%.
Spontaneous electrical activity was recorded in hiPSC-CMs monolayers as field potentials using the Maestro Pro MEA instrument (Axion Biosystems, Atlanta, GA, United States), which allows the maintenance of accurate temperature and CO2 levels (37°C, 5% CO2). After the plate was placed in the Maestro Pro and allowed to equilibrate for about 10 min, baseline acquisition of field potential and impedance signals was initiated and lasted for 5 min each. […] As impedance measures resistance of an applied alternating current through the hiPSC-CMs monolayer, a reduction in the attachment of hiPSC-CMs to the bottom of the well due to cell death or changes in the monolayer morphology, causes a drop in the impedance signal.
The potential presence of various arrhythmic events was evaluated and noted during the data analysis.
After the acquisition of all timepoint measurements, raw data were loaded into the data analysis software Axion Cardiac Analysis Tool (V.3.2.3). […] A.csv file containing information on the FP parameters per well, per time point, was then generated and used as input to the in-house data management system (SPEcII v.3.4, Unlimit-IT, Geel, Belgium), where descriptive statistics were calculated. Summary values at different time points after compound addition are expressed as percent change from baseline and shown as mean ± standard deviation (SD).
The nonparametric Wilcoxon-Mann Whitney Test was used to compare the percent change from the baseline (Δ%) value between the group treated with the compound at a given concentration and the group treated with the DMSO at each matching time points. A two-sided test at 5% significance level was considered. […] To assess the physiological relevance of changes, a tolerance interval of DMSO experiments was calculated at each time point, for each parameter. […] TIs indicate an interval where, with a certain confidence level (1- α = 0.95), a specified proportion (p = 0.80) of percent change for DMSO data falls. The lower and upper limits based on the TI values were used as cut-offs for the interpretation of the changes. For the cytotoxicity assays, measurements of fluorescence (after background fluorescence subtraction) from wells treated with the compounds were normalized by the average value of vehicle experiments (DMSO 0.1%) to obtain a DMSO-corrected, delta/delta percent change. Experiments from each condition, as delta/delta percent, were averaged and expressed as mean ± SD. Statistical analysis was performed using a non-parametric test (Kruskal-Wallis) and each treatment condition was compared to the relative DMSO 0.1%. Differences were considered statistically significant when the p-value was smaller than 0.05.

BR (beating rate), % change from baseline (0.1 µM, 2h): 0±4%
Beating below threshold, number of observations/total well numbers (0.1 µM, 2h): 0/5
Cessation of beating, number of observations/total well numbers (0.1 µM, 2h): 0/5
EAD, number of observations/total well numbers (0.1 µM, 2h): 0/5
FPDc (field-potential duration corrected by beat-rate), % change from baseline (0.1 µM, 2h): 15.3±2.3 %
Flat T-wave-like, number of observations/total well numbers (0.1 µM, 2h): 0/5
BR (beating rate), % change from baseline (0.1 µM, 24h): -9±5%
Beating below threshold, number of observations/total well numbers (0.1 µM, 24h): 0/5
Cessation of beating, number of observations/total well numbers (0.1 µM, 24h): 0/5
EAD, number of observations/total well numbers (0.1 µM, 24h): 0/5
FPDc (field-potential duration corrected by beat-rate), % change from baseline (0.1 µM, 24h): 44.1±5.9 %
Flat T-wave-like, number of observations/total well numbers (0.1 µM, 24h): 0/5
BR (beating rate), % change from baseline (0.1 µM, 48h): -14±2 %
Beating below threshold, number of observations/total well numbers (0.1 µM, 48h): 0/5
Cessation of beating, number of observations/total well numbers (0.1 µM, 48h): 0/5
EAD, number of observations/total well numbers (0.1 µM, 48h): 0/5
FPDc (field-potential duration corrected by beat-rate), % change from baseline (0.1 µM, 48h): 40.3±1.1 %
Flat T-wave-like, number of observations/total well numbers (0.1 µM, 48h): 0/5
BR (beating rate), % change from baseline (0.1 µM, 72h): -17±2 %
Beating below threshold, number of observations/total well numbers (0.1 µM, 72h): 0/5
Cessation of beating, number of observations/total well numbers (0.1 µM, 72h): 0/5
EAD, number of observations/total well numbers (0.1 µM, 72h): 0/5
FPDc (field-potential duration corrected by beat-rate), % change from baseline (0.1 µM, 72h): 52.6±4.9 %
Flat T-wave-like, number of observations/total well numbers (0.1 µM, 72h): 0/5
BR (beating rate), % change from baseline (0.1 µM, 96h): -19±3%
Beating below threshold, number of observations/total well numbers (0.1 µM, 96h): 0/5
Cessation of beating, number of observations/total well numbers (0.1 µM, 96h): 0/5
EAD, number of observations/total well numbers (0.1 µM, 96h): 0/5
FPDc (field-potential duration corrected by beat-rate), % change from baseline (0.1 µM, 96h): 57.6±5.7 %
Flat T-wave-like, number of observations/total well numbers (0.1 µM, 96h): 0/5
BR (beating rate), % change from baseline (0.3 µM, 2h): -5±4%
Beating below threshold, number of observations/total well numbers (0.3 µM, 2h): 0/5
Cessation of beating, number of observations/total well numbers (0.3 µM, 2h): 0/5
EAD, number of observations/total well numbers (0.3 µM, 2h): 0/5
FPDc (field-potential duration corrected by beat-rate), % change from baseline (0.3 µM, 2h): 28.5±9.1 %
Flat T-wave-like, number of observations/total well numbers (0.3 µM, 2h): 0/5
BR (beating rate), % change from baseline (0.3 µM, 24h): -29±5 %
Beating below threshold, number of observations/total well numbers (0.3 µM, 24h): 0/5
Cessation of beating, number of observations/total well numbers (0.3 µM, 24h): 0/5
EAD, number of observations/total well numbers (0.3 µM, 24h): 1/5
FPDc (field-potential duration corrected by beat-rate), % change from baseline (0.3 µM, 24h): 112±14.9 %
Flat T-wave-like, number of observations/total well numbers (0.3 µM, 24h): 1/5
BR (beating rate), % change from baseline (0.3 µM, 48h): -31±2 %
Beating below threshold, number of observations/total well numbers (0.3 µM, 48h): 0/5
Cessation of beating, number of observations/total well numbers (0.3 µM, 48h): 0/5
EAD, number of observations/total well numbers (0.3 µM, 48h): 0/5
FPDc (field-potential duration corrected by beat-rate), % change from baseline (0.3 µM, 48h): 99.2±21.9 %
Flat T-wave-like, number of observations/total well numbers (0.3 µM, 48h): 1/5
BR (beating rate), % change from baseline (0.3 µM, 72h): -40±3 %
Beating below threshold, number of observations/total well numbers (0.3 µM, 72h): 0/5
Cessation of beating, number of observations/total well numbers (0.3 µM, 72h): 0/5
EAD, number of observations/total well numbers (0.3 µM, 72h): 0/5
FPDc (field-potential duration corrected by beat-rate), % change from baseline (0.3 µM, 72h): 126.3±24.4 %
Flat T-wave-like, number of observations/total well numbers (0.3 µM, 72h): 1/5
BR (beating rate), % change from baseline (0.3 µM, 96h): -43±6 %
Beating below threshold, number of observations/total well numbers (0.3 µM, 96h): 0/5
Cessation of beating, number of observations/total well numbers (0.3 µM, 96h): 0/5
EAD, number of observations/total well numbers (0.3 µM, 96h): 0/5
FPDc (field-potential duration corrected by beat-rate), % change from baseline (0.3 µM, 96h): 144.1±35.5 %
Flat T-wave-like, number of observations/total well numbers (0.3 µM, 96h): 1/5
BR (beating rate), % change from baseline (1 µM, 2h): -28±5 %
Beating below threshold, number of observations/total well numbers (1 µM, 2h): 0/5
Cessation of beating, number of observations/total well numbers (1 µM, 2h): 0/5
EAD, number of observations/total well numbers (1 µM, 2h): 0/5
FPDc (field-potential duration corrected by beat-rate), % change from baseline (1 µM, 2h): 110.2±0 %
SMILES: COc1cc2c(Nc3ccc(Br)cc3F)ncnc2cc1OCC1CCN(C)CC1 [Vandetanib]
